Experimental data published in ChEMBL document CHEMBL3351827, “Design, synthesis and evaluation of novel 5-phenylpyridin-2(1H)-one derivatives as potent reversible Bruton's tyrosine kinase inhibitors” (Bioorg Med Chem, 2015).
Active and inactive are the calls of the source. No cut-off for these calls is given here.

Tests used:
[1] = molecular target: T1, Tyrosine-protein kinase BTK (Homo sapiens, UniProt Q06187); assay: Inhibition of BTK (unknown origin) using biotin-labeled peptide substrate incubated for 1 hr by TR-FRET based HTRF kinase assay
[2] = molecular target: T1, Tyrosine-protein kinase BTK; assay: Inhibition of BTK in human Ramos cells assessed as reduction in IgM-induced calcium influx incubated for 20 mins by Fluo-4 dye based fluorescence assay; format: cell-based
[3] = test system: Rattus norvegicus; assay: Inhibition of collagen-induced arthritis in Wistar rat assessed as reduction in disease progression at 20 mg/kg, po dosed for 13 days starting from day 14 post collagen challenge; format: functional, organism-based; parameters: dose 20 mg/kg
[4] = Oral bioavailability in Sprague-Dawley rat at 2 mg/kg measured during 2 mins to 24 hrs period post dose by LC/MS/MS method; format: ADME, organism-based; conditions: in vivo
[5] = AUC in Sprague-Dawley rat at 2 mg/kg, po measured during 2 mins to 24 hrs period post dose by LC/MS/MS method; format: ADME, organism-based; parameters: time upper 24 hr, time lower 0.033 hr, dose 2 mg/kg, route oral; conditions: plasma
[6] = Half life in Sprague-Dawley rat at 2 mg/kg, po measured during 2 mins to 24 hrs period post dose by LC/MS/MS method; format: ADME, organism-based; parameters: dose 2 mg/kg, route oral; conditions: in vivo
[7] = Clearance in Sprague-Dawley rat at 2 mg/kg, po measured during 2 mins to 24 hrs period post dose by LC/MS/MS method; format: ADME, organism-based; parameters: dose 2 mg/kg, route oral; conditions: in vivo
[8] = AUC in Sprague-Dawley rat at 1 mg/kg, iv measured during 2 mins to 24 hrs period post dose by LC/MS/MS method; format: ADME, organism-based; parameters: time 0.033-24 hr, dose 1 mg/kg, route intravenous; conditions: plasma
[9] = Cmax in Sprague-Dawley rat at 2 mg/kg, po measured during 2 mins to 24 hrs period post dose by LC/MS/MS method; format: ADME, organism-based; parameters: dose 2 mg/kg, route oral; conditions: in vivo
[10] = Apparent volume of distribution in Sprague-Dawley rat at 1 mg/kg, iv measured during 2 mins to 24 hrs period post dose by LC/MS/MS method; format: ADME, organism-based; parameters: dose 1 mg/kg, route intravenous; conditions: in vivo, read-out: Vz
[11] = Mean residence time (0 to t) in Sprague-Dawley rat at 1 mg/kg, iv measured during 2 mins to 24 hrs period post dose by LC/MS/MS method; format: ADME, organism-based; parameters: dose 1 mg/kg, route intravenous; conditions: in vivo
[12] = Cmax in Sprague-Dawley rat at 1 mg/kg, iv measured during 2 mins to 24 hrs period post dose by LC/MS/MS method; format: ADME, organism-based; parameters: dose 1 mg/kg, route intravenous; conditions: in vivo
[13] = Half life in Sprague-Dawley rat at 1 mg/kg, iv measured during 2 mins to 24 hrs period post dose by LC/MS/MS method; format: ADME, organism-based; parameters: dose 1 mg/kg, route intravenous; conditions: in vivo
[14] = Mean residence time (0 to t) in Sprague-Dawley rat at 2 mg/kg, po measured during 2 mins to 24 hrs period post dose by LC/MS/MS method; format: ADME, organism-based; parameters: dose 2 mg/kg, route oral; conditions: in vivo
[15] = Clearance in Sprague-Dawley rat at 1 mg/kg, iv measured during 2 mins to 24 hrs period post dose by LC/MS/MS method; format: ADME, organism-based; parameters: dose 1 mg/kg, route intravenous; conditions: in vivo
[16] = test system: Rattus norvegicus; assay: Apparent volume of distribution in Sprague-Dawley rat at 2 mg/kg, po measured during 2 mins to 24 hrs period post dose by LC/MS/MS method; format: ADME, organism-based; parameters: dose 2 mg/kg, route oral; conditions: in vivo
[17] = organism: Rattus norvegicus; conditions: Wistar, 6 mg/kg
Description: Inhibition of collagen-induced arthritis in Wistar rat assessed as reduction in disease progression at 6 mg/kg, po dosed for 13 days starting from day 14 post collagen challenge

[18] = test system: Rattus norvegicus; assay: Toxicity in Wistar rat model of collagen-induced arthritis assessed reduction in body weight at 6 and 20 mg/kg, po dosed for 13 days starting from day 14 post collagen challenge; format: organism-based; parameters: dose 20 mg/kg, route oral; conditions: in vivo, 312 h

T1 sequence (Q06187 whole entry): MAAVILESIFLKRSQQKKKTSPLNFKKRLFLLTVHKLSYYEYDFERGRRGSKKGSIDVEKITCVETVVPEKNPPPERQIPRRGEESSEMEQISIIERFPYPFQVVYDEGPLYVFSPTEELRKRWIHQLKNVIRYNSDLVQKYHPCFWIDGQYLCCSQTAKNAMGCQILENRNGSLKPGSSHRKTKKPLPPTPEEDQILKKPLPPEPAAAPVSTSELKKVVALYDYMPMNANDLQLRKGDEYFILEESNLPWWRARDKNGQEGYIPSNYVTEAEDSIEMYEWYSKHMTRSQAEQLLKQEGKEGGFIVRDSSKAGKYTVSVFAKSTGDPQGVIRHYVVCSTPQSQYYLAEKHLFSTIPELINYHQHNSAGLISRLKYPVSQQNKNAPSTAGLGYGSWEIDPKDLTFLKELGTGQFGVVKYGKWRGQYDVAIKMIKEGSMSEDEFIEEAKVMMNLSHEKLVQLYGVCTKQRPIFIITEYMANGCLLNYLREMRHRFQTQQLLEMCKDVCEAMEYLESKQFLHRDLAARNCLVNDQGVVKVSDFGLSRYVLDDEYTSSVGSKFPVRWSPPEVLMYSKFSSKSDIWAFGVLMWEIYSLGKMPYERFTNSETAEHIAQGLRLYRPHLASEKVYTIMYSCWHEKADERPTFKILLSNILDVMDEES

SMILES | IC50 [1] [µM] | IC50 [2] [µM] | further results
CN1CCN(c2ccc(Nc3cc(-c4cccc(-n5ccc6ccccc6c5=O)c4CO)cn(C)c3=O)nc2)CC1 | 1.03 |  | 
Cc1c(Nc2ncnc3ccccc23)cccc1-c1c[nH]c(=O)c(Nc2ccc(N3CCN(C)CC3)cn2)c1C | > 5 |  | 
CN1CCN(c2ccc(Nc3cc(-c4cccc(-n5ccc6cc(C7CC7)cc(F)c6c5=O)c4)cn(C)c3=O)nc2)CC1 | 0.503 | 0.472 | 
CN1CCN(c2ccc(Nc3cc(-c4cccc(-n5ccc6cc(C7CC7)cc(F)c6c5=O)c4CO)cn(C)c3=O)nc2)CC1 |  |  | inhibition [3]: Active; bioavailability [4]: 49.9%; AUC [5]: 0.403 µg·h/mL; half-life [6]: 11.5 h; CL/F [7]: 5.07 L/h/kg; AUC [8]: 0.404 µg·h/mL; Cmax [9]: 0.0348 µg/mL; Vd [10]: 50.5 L/kg; MRT last [11]: 6.56 h; Cmax [12]: 0.22 µg/mL; half-life [13]: 14.1 h; MRT last [14]: 9.31 h; clearance [15]: 2.47 L/h/kg; Vz [16]: 86.69 L/kg
CN1CCN(c2ccc(Nc3cc(-c4cccc(-n5ccc6cc(N(C)C)ncc6c5=O)c4CO)cn(C)c3=O)nc2)CC1 | 0.431 | 1.03 | 
CN1CC(N2CCN(c3ccc(Nc4cc(-c5cccc(-n6ccc7cc(C8CC8)cc(F)c7c6=O)c5CO)cn(C)c4=O)nc3)CC2)C1 | 0.009 | 0.033 | 
Cc1c(NC(=O)c2ccc(C(C)(C)C)cc2)cccc1-c1cc(Nc2ccc(N3CCN(C)CC3)cn2)c(=O)n(C)c1 | 0.875 | > 5 | 
Cn1cc(-c2cccc(-n3ccc4cc(C5CC5)cc(F)c4c3=O)c2CO)cc(Nc2ccc(N3CCN(C4COC4)CC3)cn2)c1=O | 0.016 | 0.008 | inhibition [3]: Active; bioavailability [4]: 58.4%; AUC [5]: 1.95 µg·h/mL; half-life [6]: 11.5 h; CL/F [7]: 0.81 L/h/kg; inhibition [17]: Active; AUC [8]: 1.67 µg·h/mL; Cmax [9]: 0.17 µg/mL; Vd [10]: 9.28 L/kg; MRT last [11]: 6.48 h; Cmax [12]: 1.09 µg/mL; half-life [13]: 13.6 h; MRT last [14]: 8.78 h; Activity [18]: Non-toxic; clearance [15]: 0.47 L/h/kg; Vz [16]: 13.4 L/kg
Cn1cc(-c2cccc(-n3ccc4cc(C5CC5)cc(F)c4c3=O)c2CO)cc(Nc2ccc(N3CCN(C(=O)C4CC4)CC3)cn2)c1=O | 0.028 | 4.36 | 
CN1CCN(c2ccc(CNc3cc(-c4cccc(-n5ccc6cc(C7CC7)cc(F)c6c5=O)c4CO)cn(C)c3=O)cc2)CC1 | > 5 |  | 
Cc1c(-c2cc(Nc3ccc(N4CCN(C)CC4)cn3)c(=O)n(C)c2)cccc1N1C(=O)c2ccc(C(C)(C)C)cc2C1=O | > 5 |  | 
CN1CCN(c2ccc(Nc3cc(-c4cccc(-n5ccc6nc(C7CC7)ccc6c5=O)c4CO)cn(C)c3=O)nc2)CC1 | 0.564 | 3.25 | 
CN1CCN(c2ccc(Nc3cc(-c4cccc(-n5ccc6cc(C7CC7)ccc6c5=O)c4CO)cn(C)c3=O)nc2)CC1 | 0.037 | 0.115 | 
Cn1cc(-c2cccc(-n3ccc4cc(C5CC5)cc(F)c4c3=O)c2CO)cc(Nc2ccc(C3CCN(C4COC4)CC3)cn2)c1=O | 0.02 | 0.021 | 
Cc1c(-c2cc(Nc3ccc(N4CCN(C5COC5)CC4)cn3)c(=O)n(C)c2)cccc1-n1ccc2cc(C3CC3)cc(F)c2c1=O | 0.203 | 0.171 | 
CN1CCN(c2ccc(C(=O)Nc3cc(-c4cccc(-n5ccc6cc(C7CC7)cc(F)c6c5=O)c4CO)cn(C)c3=O)cc2)CC1 | 0.818 | > 5 | 
Cc1c(-c2cc(Nc3ccc(N4CCN(C)CC4)cn3)c(=O)n(C)c2)cccc1-c1nc2cc(C(C)(C)C)ccc2[nH]1 | > 5 |  | 
Cc1c(-c2cc(Nc3ccc(N4CCN(C)CC4)cn3)c(=O)n(C)c2)cccc1-n1ccc2cc(C3CC3)cc(F)c2c1=O | 0.365 | 0.254 | 
CN1CCN(c2ccc(Nc3cc(-c4cccc(-n5ccc6cc(C7CC7)ncc6c5=O)c4CO)cn(C)c3=O)nc2)CC1 | 0.255 | 0.124 | 
